The test relates to MV-4-11 cells. The test can be described thus: Gene expression microarray analysis (Affymetrix PrimeView) and GSEA. Also noted: RFU PODN (11730768_x_at) / Fold change /veh PODN (11730768_x_at) / RFU LINC00158 (11744669_a_at) / Fold change /veh LINC00158 (11744669_a_at) / RFU DUSP10 (11751237_a_at) / Fold change /veh DUSP10 (11751237_a_at) / RFU ID3 (11757404_x_at) / Fold change /veh ID3 (11757404_x_at) / RFU PLEKHG5 (11737974_s_at) / Fold change /veh PLEKHG5 (11737974_s_at) / RFU LRRC4B (11730491_at) / Fold change /veh LRRC4B (11730491_at) / RFU GIMAP4 (11747438_a_at) / Fold change /veh GIMAP4 (11747438_a_at) / RFU KRT8 (11758183_x_at) / Fold change /veh KRT8 (11758183_x_at) / RFU CNN1 (11734310_a_at) / Fold change /veh CNN1 (11734310_a_at) / RFU VPS37D (11726825_at) / Fold change /veh VPS37D (11726825_at) / RFU C10orf10 (11716522_x_at) / Fold change /veh C10orf10 (11716522_x_at) / RFU KIR2DL2 /// KIR2DL4 /// KIR2DL5A /// KIR2DL5B /// KIR2DS1 /// KIR2DS2 /// KIR2DS3 /// KIR2DS4 /// KIR3DL3 /// KIR3DL3 /// KIR3DS1 (11738374_at) / Fold change /veh KIR2DL2 /// KIR2DL4 /// KIR2DL5A /// KIR2DL5B /// KIR2DS1 /// KIR2DS2 /// KIR2DS3 /// KIR2DS4 /// KIR3DL3 /// KIR3DL3 /// KIR3DS1 (11738374_at) / RFU C1QL1 (11718748_at) / Fold change /veh C1QL1 (11718748_at) / RFU TMPRSS4 (11747572_a_at) / Fold change /veh TMPRSS4 (11747572_a_at) / RFU HAMP (11756126_x_at) / Fold change /veh HAMP (11756126_x_at) / RFU RNFT2 (11725882_a_at) / Fold change /veh RNFT2 (11725882_a_at) / RFU NR4A2 (11747474_a_at) / Fold change /veh NR4A2 (11747474_a_at) / RFU ABCC12 (11746883_a_at) / Fold change /veh ABCC12 (11746883_a_at) / RFU TMEM136 (11760407_x_at) / Fold change /veh TMEM136 (11760407_x_at) / RFU CLDN22 /// WWC2 (11732394_at) / Fold change /veh CLDN22 /// WWC2 (11732394_at) / RFU HLA-DPB1 (11760878_x_at) / Fold change /veh HLA-DPB1 (11760878_x_at) / RFU SPINT1 (11716480_a_at) / Fold change /veh SPINT1 (11716480_a_at) / RFU GAP43 (11754022_s_at) / Fold change /veh GAP43 (11754022_s_at) / RFU A4GNT (11735810_at) / Fold change /veh A4GNT (11735810_at) / RFU PRB3 (11715151_x_at) / Fold change /veh PRB3 (11715151_x_at) / RFU TUBB4B (11761932_at) / Fold change /veh TUBB4B (11761932_at) / RFU CAPN14 (11732068_a_at) / Fold change /veh CAPN14 (11732068_a_at) / RFU TMCC2 (11721928_a_at) / Fold change /veh TMCC2 (11721928_a_at) / RFU IRGQ (11745062_a_at) / Fold change /veh IRGQ (11745062_a_at) / RFU FAM174B (11720279_a_at) / Fold change /veh FAM174B (11720279_a_at) / RFU TMPRSS4 (11748680_a_at) / Fold change /veh TMPRSS4 (11748680_a_at) / RFU FAM212B (11763350_a_at) / Fold change /veh FAM212B (11763350_a_at) / RFU PLEKHG5 (11743358_a_at) / Fold change /veh PLEKHG5 (11743358_a_at) / RFU ZSCAN30 (11745921_a_at) / Fold change /veh ZSCAN30 (11745921_a_at) / RFU CMKLR1 (11741424_a_at) / Fold change /veh CMKLR1 (11741424_a_at) / RFU LOC101060620 /// MAPK8IP1 (11723275_at) / Fold change /veh LOC101060620 /// MAPK8IP1 (11723275_at) / RFU SPTSSB (11747773_x_at) / Fold change /veh SPTSSB (11747773_x_at) / RFU PRSS12 (11739890_at) / Fold change /veh PRSS12 (11739890_at) / RFU BIN1 (11741810_x_at) / Fold change /veh BIN1 (11741810_x_at) / RFU WNT11 (11732464_a_at) / Fold change /veh WNT11 (11732464_a_at) / RFU C10orf10 (11716521_a_at) / Fold change /veh C10orf10 (11716521_a_at) / RFU C5orf56 (11738089_at) / Fold change /veh C5orf56 (11738089_at) / RFU CYB561 (11721691_x_at) / Fold change /veh CYB561 (11721691_x_at) / RFU ANKRD19P (11752326_a_at) / Fold change /veh ANKRD19P (11752326_a_at) / RFU OR2T12 /// OR2T33 /// OR2T8 (11738714_s_at) / Fold change /veh OR2T12 /// OR2T33 /// OR2T8 (11738714_s_at) / RFU VCAN (11748164_a_at) / Fold change /veh VCAN (11748164_a_at) / RFU JSRP1 (11732532_at) / Fold change /veh JSRP1 (11732532_at) / RFU KRTAP10-11 (11738290_x_at) / Fold change /veh KRTAP10-11 (11738290_x_at) / RFU MYO3A (11730013_a_at) / Fold change /veh MYO3A (11730013_a_at) / RFU EBF3 (11725865_a_at) / Fold change /veh EBF3 (11725865_a_at) / RFU CAMK2N1 (11719241_x_at) / Fold change /veh CAMK2N1 (11719241_x_at) / RFU C5orf56 (11738088_a_at) / Fold change /veh C5orf56 (11738088_a_at) / RFU OLFML3 (11715873_a_at) / Fold change /veh OLFML3 (11715873_a_at) / RFU LOC100653217 /// NTM (11731650_a_at) / Fold change /veh LOC100653217 /// NTM (11731650_a_at) / RFU MAPK11 (11762145_a_at) / Fold change /veh MAPK11 (11762145_a_at) / RFU FIZ1 (11724087_x_at) / Fold change /veh FIZ1 (11724087_x_at) / RFU OASL (11726364_x_at) / Fold change /veh OASL (11726364_x_at) / RFU SOX15 (11748057_x_at) / Fold change /veh SOX15 (11748057_x_at) / RFU CD79A (11719716_a_at) / Fold change /veh CD79A (11719716_a_at) / RFU HIST1H1D (11736915_at) / Fold change /veh HIST1H1D (11736915_at) / RFU CASKIN2 (11723855_a_at) / Fold change /veh CASKIN2 (11723855_a_at) / RFU LOC730098 (11760151_x_at) / Fold change /veh LOC730098 (11760151_x_at) / RFU OR4N2 (11742367_at) / Fold change /veh OR4N2 (11742367_at) / RFU PRRT2 (11749266_a_at) / Fold change /veh PRRT2 (11749266_a_at) / RFU SNX32 (11753110_a_at) / Fold change /veh SNX32 (11753110_a_at) / RFU CDHR5 (11726645_a_at) / Fold change /veh CDHR5 (11726645_a_at) / RFU RCAN1 (11760418_a_at) / Fold change /veh RCAN1 (11760418_a_at) / RFU FAM167A (11723789_a_at) / Fold change /veh FAM167A (11723789_a_at) / RFU FAM26E (11764081_at) / Fold change /veh FAM26E (11764081_at) / RFU ISYNA1 (11749810_s_at) / Fold change /veh ISYNA1 (11749810_s_at) / RFU ACY1 (11761880_at) / Fold change /veh ACY1 (11761880_at) / RFU 11764098_at / Fold change /veh 11764098_at / RFU SAMD14 (11745864_x_at) / Fold change /veh SAMD14 (11745864_x_at) / RFU NPB (11741838_a_at) / Fold change /veh NPB (11741838_a_at) / RFU TMPRSS6 (11731388_a_at) / Fold change /veh TMPRSS6 (11731388_a_at) / RFU KRTAP10-2 (11738614_at) / Fold change /veh KRTAP10-2 (11738614_at) / RFU ARHGAP8 /// PRR5-ARHGAP8 (11727945_x_at) / Fold change /veh ARHGAP8 /// PRR5-ARHGAP8 (11727945_x_at) / RFU KRTAP5-7 /// NADSYN1 (11734609_at) / Fold change /veh KRTAP5-7 /// NADSYN1 (11734609_at) / RFU RASL12 (11751679_a_at) / Fold change /veh RASL12 (11751679_a_at) / RFU CDKN2B (11736163_a_at) / Fold change /veh CDKN2B (11736163_a_at) / RFU PRF1 (11729649_at) / Fold change /veh PRF1 (11729649_at) / RFU, ZNF638 /// ZNF638-IT1 / Fold change vs veh, ZNF638 /// ZNF638-IT1 / RFU, PANK3 / Fold change vs veh, PANK3 / RFU, SH3YL1 / Fold change vs veh, SH3YL1 / RFU, ZEB2 / Fold change vs veh, ZEB2 / RFU, NRIP1 / Fold change vs veh, NRIP1 / RFU, PTTG1IP / Fold change vs veh, PTTG1IP / RFU, CAPN2 / Fold change vs veh, CAPN2 / RFU, MED14 / Fold change vs veh, MED14 / RFU, SNORA58 / Fold change vs veh, SNORA58 / RFU, C1orf63 / Fold change vs veh, C1orf63 / RFU, LRRFIP1 / Fold change vs veh, LRRFIP1 / RFU, NDUFAF7 / Fold change vs veh, NDUFAF7 / RFU, SLC12A2 / Fold change vs veh, SLC12A2 / RFU, IBTK / Fold change vs veh, IBTK / RFU, ESF1 / Fold change vs veh, ESF1 / Fold change vs veh, TMEM50B / RFU, TAOK1 / Fold change vs veh, TAOK1 / RFU, ACBD3 / Fold change vs veh, ACBD3 / RFU, TMA16 / Fold change vs veh, TMA16 / RFU, RWDD3 / Fold change vs veh, RWDD3 / RFU, BCAT1 / Fold change vs veh, BCAT1 / RFU, EDEM3 / Fold change vs veh, EDEM3 / RFU, TMEM33 / Fold change vs veh, TMEM33 / RFU, WDR75 / Fold change vs veh, WDR75 / RFU, AHCTF1 / Fold change vs veh, AHCTF1 / RFU, TFRC / Fold change vs veh, TFRC / RFU, ZDHHC17 / Fold change vs veh, ZDHHC17 / RFU, NOM1 / Fold change vs veh, NOM1 / RFU, ARL8B / Fold change vs veh, ARL8B / RFU, ZBTB11 / Fold change vs veh, ZBTB11 / RFU, TAMM41 / Fold change vs veh, TAMM41 / RFU, KIAA1704 /// LOC100996395 / Fold change vs veh, KIAA1704 /// LOC100996395 / RFU, ING1 / Fold change vs veh, ING1 / RFU, TRMT61B / Fold change vs veh, TRMT61B / RFU, FUBP3 / Fold change vs veh, FUBP3 / RFU, TP53 / Fold change vs veh, TP53 / RFU, TNKS2 / Fold change vs veh, TNKS2 / RFU, ZFP14 / Fold change vs veh, ZFP14 / RFU, ACTR2 / Fold change vs veh, ACTR2 / RFU, PPP3R1 / Fold change vs veh, PPP3R1 / RFU, PIK3R1 / Fold change vs veh, PIK3R1 / RFU, HNRNPA1 / Fold change vs veh, HNRNPA1 / RFU, RNF170 / Fold change vs veh, RNF170 / RFU, ZNF28 / Fold change vs veh, ZNF28 / RFU, RNGTT / Fold change vs veh, RNGTT / RFU, OGT / Fold change vs veh, OGT / RFU, BRD1 / Fold change vs veh, BRD1 / RFU, MARS / Fold change vs veh, MARS / RFU, ZNF655 / Fold change vs veh, ZNF655 / RFU, FAHD1 / Fold change vs veh, FAHD1 / RFU, BDP1 / Fold change vs veh, BDP1 / RFU, LRRCC1 / Fold change vs veh, LRRCC1 / RFU, ARID1A / Fold change vs veh, ARID1A / RFU, ZNF146 / Fold change vs veh, ZNF146 / RFU, ZNF330 / Fold change vs veh, ZNF330 / RFU, GPN3 / Fold change vs veh, GPN3 / RFU, C9orf123 / Fold change vs veh, C9orf123 / RFU, N4BP2L2 / Fold change vs veh, N4BP2L2 / RFU, ARFIP1 / Fold change vs veh, ARFIP1 / RFU, FAM179B / Fold change vs veh, FAM179B / RFU, BCL10 / Fold change vs veh, BCL10 / RFU, UHRF1BP1L / Fold change vs veh, UHRF1BP1L / RFU, BET1 / Fold change vs veh, BET1 / RFU, CNOT2 / Fold change vs veh, CNOT2 / RFU, ZNF268 / Fold change vs veh, ZNF268 / Fold change vs veh, ZNF507 / RFU, DGCR2 / Fold change vs veh, DGCR2 / RFU, WDSUB1 / Fold change vs veh, WDSUB1 / Fold change vs veh, HSP90B1 /// MIR3652 / RFU, ADSS / Fold change vs veh, ADSS / RFU, GK / Fold change vs veh, GK / RFU, ZNF148 / Fold change vs veh, ZNF148 / RFU, TAF9 / Fold change vs veh, TAF9 / RFU, SLC1A5 / Fold change vs veh, SLC1A5 / RFU, SLMO2 / Fold change vs veh, SLMO2 / RFU, ABCC4 / Fold change vs veh, ABCC4 / RFU, LOC101060439 /// RAP1B / Fold change vs veh, LOC101060439 /// RAP1B / RFU, RFX7 / Fold change vs veh, RFX7 / RFU, GTPBP10 / Fold change vs veh, GTPBP10 / RFU, CNEP1R1 / Fold change vs veh, CNEP1R1 / RFU, BIVM-ERCC5 /// ERCC5 / Fold change vs veh, BIVM-ERCC5 /// ERCC5 / RFU, ILF3 / Fold change vs veh, ILF3 / RFU 11762660_at / Fold change /veh 11762660_at / RFU VCAN (11757783_s_at) / Fold change /veh VCAN (11757783_s_at) / RFU DDX43 (11728927_at) / Fold change /veh DDX43 (11728927_at) / RFU KRT8 (11758188_x_at) / Fold change /veh KRT8 (11758188_x_at) / RFU NKD1 (11759106_at) / Fold change /veh NKD1 (11759106_at) / RFU SRD5A1 (11742802_a_at) / Fold change /veh SRD5A1 (11742802_a_at) / RFU TPSAB1 /// TPSB2 (11721975_s_at) / Fold change /veh TPSAB1 /// TPSB2 (11721975_s_at) / RFU GSTM3 (11746129_a_at) / Fold change /veh GSTM3 (11746129_a_at) / RFU IL23R (11737362_x_at) / Fold change /veh IL23R (11737362_x_at) / RFU TMEM51 (11727254_a_at) / Fold change /veh TMEM51 (11727254_a_at) / RFU PIWIL2 (11732686_x_at) / Fold change /veh PIWIL2 (11732686_x_at) / RFU ORM1 (11744905_x_at) / Fold change /veh ORM1 (11744905_x_at) / RFU CCDC152 (11743942_at) / Fold change /veh CCDC152 (11743942_at) / RFU ECM1 (11717891_a_at) / Fold change /veh ECM1 (11717891_a_at) / RFU IL23R (11748794_a_at) / Fold change /veh IL23R (11748794_a_at) / RFU TNFAIP8L3 (11732012_x_at) / Fold change /veh TNFAIP8L3 (11732012_x_at) / RFU MBOAT4 (11741988_at) / Fold change /veh MBOAT4 (11741988_at) / RFU 11764193_at / Fold change /veh 11764193_at / RFU TMEM53 (11763286_at) / Fold change /veh TMEM53 (11763286_at) / RFU MAGEB2 (11727129_at) / Fold change /veh MAGEB2 (11727129_at) / RFU TMEM200A (11744735_a_at) / Fold change /veh TMEM200A (11744735_a_at) / RFU CCDC152 (11751479_a_at) / Fold change /veh CCDC152 (11751479_a_at) / RFU FAM211A (11726209_a_at) / Fold change /veh FAM211A (11726209_a_at) / RFU RGS16 (11746705_a_at) / Fold change /veh RGS16 (11746705_a_at) / RFU VCAN (11755009_s_at) / Fold change /veh VCAN (11755009_s_at) / RFU RHOB (11743442_s_at) / Fold change /veh RHOB (11743442_s_at) / RFU RGS16 (11720943_a_at) / Fold change /veh RGS16 (11720943_a_at) / RFU RGS16 (11720944_at) / Fold change /veh RGS16 (11720944_at) / RFU, VPS4B / Fold change vs veh, VPS4B / RFU, CREB1 / Fold change vs veh, CREB1 / RFU, DNAJC13 / Fold change vs veh, DNAJC13 / RFU, GNAQ / Fold change vs veh, GNAQ / RFU, CDK5R1 / Fold change vs veh, CDK5R1 / RFU, ZRANB3 / Fold change vs veh, ZRANB3 / RFU, CUL4A / Fold change vs veh, CUL4A / RFU, CCNY / Fold change vs veh, CCNY / RFU, UFL1 / Fold change vs veh, UFL1 / RFU, COG3 / Fold change vs veh, COG3 / RFU, DIAPH2 / Fold change vs veh, DIAPH2 / RFU, SKA2 / Fold change vs veh, SKA2 / RFU, AFF3 / Fold change vs veh, AFF3 / RFU, LMF1 / Fold change vs veh, LMF1 / RFU, IPO11 / Fold change vs veh, IPO11 / RFU, DFFB / Fold change vs veh, DFFB / RFU, FOXP1 / Fold change vs veh, FOXP1 / RFU, CARD8 / Fold change vs veh, CARD8 / RFU, STRN3 / Fold change vs veh, STRN3 / RFU, ADK / Fold change vs veh, ADK / RFU, RASSF2 / Fold change vs veh, RASSF2 / RFU, WIPF1 / Fold change vs veh, WIPF1 / RFU, LARP1B / Fold change vs veh, LARP1B / RFU, RASA1 / Fold change vs veh, RASA1 / RFU, RB1 / Fold change vs veh, RB1 / RFU, PPFIA1 / Fold change vs veh, PPFIA1 / RFU, MAT2A / Fold change vs veh, MAT2A / RFU, CCT5 / Fold change vs veh, CCT5 / RFU, WDR92 / Fold change vs veh, WDR92 / RFU, CUX1 / Fold change vs veh, CUX1 / RFU, TTC7A / Fold change vs veh, TTC7A / RFU, TMEM135 / Fold change vs veh, TMEM135 / RFU, DEPTOR / Fold change vs veh, DEPTOR / RFU, CPM / Fold change vs veh, CPM / RFU, DNAJB6 / Fold change vs veh, DNAJB6 / RFU, CACNA2D3 / Fold change vs veh, CACNA2D3 / RFU, DTX4 / Fold change vs veh, DTX4 / RFU, TFCP2 / Fold change vs veh, TFCP2 / RFU, GMCL1 /// GMCL1P1 / Fold change vs veh, GMCL1 /// GMCL1P1 / RFU, AEBP2 / Fold change vs veh, AEBP2 / RFU, SNHG1 /// SNORD22 /// SNORD25 /// SNORD26 /// SNORD27 /// SNORD28 /// SNORD29 /// SNORD31 / Fold change vs veh, SNHG1 /// SNORD22 /// SNORD25 /// SNORD26 /// SNORD27 /// SNORD28 /// SNORD29 /// SNORD31 / Fold change (Aza/veh), C12orf56 (ProbeSet 11735607_a_at) / Fold change (ACY-1035/veh), C12orf56 (ProbeSet 11735607_a_at) / Fold change (Aza/veh), FGFR1OP (ProbeSet 11751329_s_at) / Fold change (ACY-1035/veh), FGFR1OP (ProbeSet 11751329_s_at) / Fold change (Aza/veh), VPS36 (ProbeSet 11739960_a_at) / Fold change (ACY-1035/veh), VPS36 (ProbeSet 11739960_a_at) / RFU SYPL1 (11715823_x_at) / Fold change /veh SYPL1 (11715823_x_at) / RFU IGFBP7 (11715501_s_at) / Fold change /veh IGFBP7 (11715501_s_at) / RFU REEP3 (11722064_at) / Fold change /veh REEP3 (11722064_at) / RFU IGLL1 (11728026_x_at) / Fold change /veh IGLL1 (11728026_x_at): dose or concentration left out as unconfirmed. The conditions noted are these: ProbeSet 11743882_a_at; LIST D. The format is cell-based, human.

Structures are written as SMILES.

With `Nc1ccc(-c2cccs2)cc1NC(=O)c1ccc2c(c1)cc(C1CC1)n2CCN1CCOCC1` [ACY-1035], the “RFU, STRN3” value is 114.91 RFU.
